Data on two compounds can be found in ChEMBL document CHEMBL1148933, “Tetradehydrohalicyclamine A and 22-hydroxyhalicyclamine A, new cytotoxic bis-piperidine alkaloids from a marine sponge Amphimedon sp” (J Nat Prod, 2004).

For the test, the system named is P388. In words: Cytotoxicity against mouse P388 cells. The format is functional, cell-based.

As to `C1=C2CCCC/C=C\C=C\CCN3CC[C@@H]4[C@H](CCCCCC/C=C\C=C/CCN(C2)C[C@H]14)C3.O=C(O)C(F)(F)F.O=C(O)C(F)(F)F` [HALICYCLAMINE A TFA], half-maximal inhibition (IC50) was put at 0.45 µg/mL.

Turning to `C1=C\CCCCCC[C@@H]2CN3CC/C=C/C=C\CCCCc4cc(c[n+](c4)CC\C=C/1)[C@@H]2CC3.O=C(O)C(F)(F)F.O=C([O-])C(F)(F)F` [TETRADEHYDROHALICYCLAMINE A], it took 2.2 µg/mL to reach half-maximal inhibition (IC50).
